Test results: patent US11840686B2, “Modulation of prekallikrein (PKK) expression” (Ionis Pharmaceuticals, Inc., priority 2013, dated 2023)
Strand notation (5' to 3'): a small letter for the sugar, then the base; units joined by * are phosphorothioate-linked, units joined directly phosphodiester-linked; [ ] holds rarer units or linkages, { } end groups; capitals alone tell only the bases. e = 2'-O-(2-methoxyethyl) (MOE); [5mC] = 5-methylcytosine; d = 2'-deoxy (DNA)

Legend:
PKK mRNA = PKK mRNA in cynomolgus monkey liver (Example 8); assay type: in vivo; details: 40 mg/kg s.c., loading then weekly to week 13; day 87 or 88, 48 h after final dose
Method: Cynomolgus monkeys were treated with ISIS antisense oligonucleotides selected from studies described above. Antisense oligonucleotide efficacy and tolerability were evaluated. The human antisense oligonucleotides tested are cross-reactive with the rhesus genomic sequence (GENBANK Accession No. NW_001118167.1 truncated from nucleotides 2358000 to 2391000 and designated herein as SEQ ID NO: 18).
On day 87 or 88, 48 hours after the final dose, RNA was extracted from liver tissue for real-time PCR analysis of PKK using primer probe set RTS3455 (forward sequence […], designated herein as SEQ ID NO: 23; reverse sequence […], designated herein as SEQ ID NO: 24; probe sequence […], designated herein as SEQ ID NO: 25). The results were normalized to the housekeeping gene, Cyclophilin. Results are presented as percent inhibition of PKK mRNA, relative to PBS control.

human PKK mRNA [1] = experiment: Dose-dependent antisense inhibition of human PKK in HepaRG cells, 0.19-5.00 uM (Example 5); assay type: cell-based; details: for percent inhibition of PKK mRNA, 0.19 μM: 0.19 μM antisense oligonucleotide; for percent inhibition of PKK mRNA, 0.56 μM: 0.56 μM antisense oligonucleotide; for percent inhibition of PKK mRNA, 1.67 μM: 1.67 μM antisense oligonucleotide; for percent inhibition of PKK mRNA, 5.00 μM: 5.00 μM antisense oligonucleotide
How it was run: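 HepaRG cells (20,000/well) were electroporated with antisense oligonucleotide at 0.19, 0.56, 1.67 and 5.00 μM and treated for about 16 hours. PKK mRNA was quantified by qRT-PCR with primer probe set RTS3454, normalised to RIBOGREEN total RNA, and IC50 was derived per oligonucleotide.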

human PKK mRNA [2] = experiment: Antisense inhibition of human PKK mRNA in HepaRG cells, 5,000 nM (Example 2); assay type: cell-based
How it was run: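 HepaRG cells (20,000/well) electroporated with 5,000 nM MOE gapmer (phosphorothioate backbone, 5-methylcytosines) and harvested after ~24 h. PKK mRNA measured by qRT-PCR with primer probe set RTS3454, normalized to RIBOGREEN total RNA; percent inhibition versus untreated cells.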

human PKK mRNA [3] = experiment: Human PKK mRNA in liver of human KLKB1 transgenic mice (Example 7); assay type: in vivo; details: twice a week for 3 weeks
Method: (§1) Transgenic mice containing a 37,390 base pair fragment of the human KLKB1 gene sequence (chromosome 4: position 187148672-187179625, accession no: NC_000004.11) were treated with ISIS antisense oligonucleotides selected from studies described above, which were evaluated for efficacy in this model.
(§2) Groups of transgenic mice were injected subcutaneously twice a week for 3 weeks with 2.5 mg/kg/week, 5.0 mg/kg/week, 10 mg/kg/week or 20 mg/kg/week of ISIS 546232, ISIS 546251, ISIS 546254, ISIS 546343, ISIS 546828, ISIS 547455, ISIS 547457, ISIS 547927, and ISIS 548048. One group of transgenic mice was injected subcutaneously twice a week for 3 weeks with PBS. Mice were euthanized 48 hours after the last dose, and organs and plasma were harvested for further analysis.
To evaluate the effect of ISIS oligonucleotides on target reduction, RNA was extracted from liver tissue for real-time PCR analysis of human PKK. Results are presented as percent inhibition of PKK mRNA, relative to PBS control.

PKK protein = experiment: Plasma PKK protein levels in human KLKB1 transgenic mice (Example 7); assay type: in vivo; details: plasma, twice a week for 3 weeks
Method: as §1, §2
Plasma PKK protein levels were evaluated in all groups. Results are presented as percent inhibition of PKK protein, relative to PBS control.

[4] = HepaRG cells, electroporation, approximately 16 hours, Table 39
[5] = 4 point dose response, HepaRG cells, Table 39
[6] = Table 34, HepaRG, electroporation, ~16 h

| Substance | % inhibition of PKK mRNA in the cynomolgus monkey liver relative to the PBS control (PKK mRNA) | percent inhibition of PKK at 0.19 μM (human PKK mRNA [1]; [4]) | percent inhibition of PKK at 0.56 μM (human PKK mRNA [1]; [4]) | percent inhibition of PKK at 1.67 μM (human PKK mRNA [1]; [4]) | percent inhibition of PKK at 5.00 μM (human PKK mRNA [1]; [4]) | IC50 (human PKK mRNA [1]; [5]) | percent inhibition of PKK mRNA, 0.19 μM (human PKK mRNA [1]; HepaRG cells) | percent inhibition of PKK mRNA, 0.56 μM (human PKK mRNA [1]; HepaRG cells) | percent inhibition of PKK mRNA, 1.67 μM (human PKK mRNA [1]; HepaRG cells) | percent inhibition of PKK mRNA, 5.00 μM (human PKK mRNA [1]; HepaRG cells) | IC50 (human PKK mRNA [1]; HepaRG cells, 0.19-5.00 μM) | % inhibition of PKK mRNA in the transgenic mice liver relative to the PBS control (human PKK mRNA [3]; 2.5 mg/kg/week sc) | % inhibition of PKK mRNA in the transgenic mice liver relative to the PBS control (human PKK mRNA [3]; 5 mg/kg/week sc) | % inhibition of PKK mRNA in the transgenic mice liver relative to the PBS control (human PKK mRNA [3]; 10 mg/kg/week sc) | % inhibition of PKK mRNA in the transgenic mice liver relative to the PBS control (human PKK mRNA [3]; 20 mg/kg/week sc) | % inhibition of PKK protein levels in the transgenic mice relative to the PBS control (PKK protein; 2.5 mg/kg/week sc) | % inhibition of PKK protein levels in the transgenic mice relative to the PBS control (PKK protein; 5 mg/kg/week sc) | % inhibition of PKK protein levels in the transgenic mice relative to the PBS control (PKK protein; 10 mg/kg/week sc) | % inhibition of PKK protein levels in the transgenic mice relative to the PBS control (PKK protein; 20 mg/kg/week sc) | further results |
| --- | --- | --- | --- | --- | --- | --- | --- | --- | --- | --- | --- | --- | --- | --- | --- | --- | --- | --- | --- | --- |
| 547457 (antisense eA*eA*eG*eG*e[5mC]*dG*dA*dT*dA*dT*d[5mC]*dA*dT*dG*dA*eT*eT*e[5mC]*e[5mC]*e[5mC]) [compound 547457] | 89% | 41% | 65% | 80% | 85% | 300 nM | 33% | 42% | 70% | 83% | 600 nM | 0% | 69% | 45% | 62% | 0% | 4% | 31% | 60% | % inhibition (human PKK mRNA [2]; Table 9 experiment, HepaRG cells, 20,000 cells per well, electroporation with 5,000 nM antisense oligonucleotide, approx. 24 hours, PKK mRNA by RT-PCR (RTS3454), relative to untreated control cells): 89%; % inhibition (human PKK mRNA [2]; Table 10 experiment, HepaRG cells, 20,000 cells per well, electroporation with 5,000 nM antisense oligonucleotide, approx. 24 hours, PKK mRNA by RT-PCR (RTS3454), relative to untreated control cells): 92% |
| 546232 (eA*eG*eG*eA*eA*d[5mC]*dT*dT*dG*dG*dT*dG*dT*dG*d[5mC]*e[5mC]*eA*e[5mC]*eT*eT) [compound 546232] | 88% | 49% | 50% | 94% | 97% | 200 nM | 0% | 74% | 95% | 96% | 200 nM | 57% | 53% | 30% | 84% | 0% | 6% | 33% | 79% | % inhibition (human PKK mRNA [2]; Table 7, HepaRG cells, electroporation with 5,000 nM antisense oligonucleotide, approx. 24 hours, PKK mRNA by RT-PCR (RTS3454), relative to untreated control cells): 86% |
| 546828 (eA*e[5mC]*eA*eG*eT*dA*dT*d[5mC]*dA*d[5mC]*dT*dG*dT*dA*d[5mC]*eT*eA*eG*eT*eT) [compound 546828] | 45% |  |  |  |  |  |  |  |  |  |  | 77% | 62% | 32% | 83% | 0% | 25% | 36% | 93% | percent inhibition of PKK at 5.00 μM (human PKK mRNA [1]; HepaRG cells, electroporation, approximately 16 hours, Table 41): 97%; percent inhibition of PKK at 0.19 0μM (human PKK mRNA [1]; 0.19 0μM, HepaRG cells, electroporation, approximately 16 hours, Table 41): 0%; percent inhibition of PKK at 0.56 0μM (human PKK mRNA [1]; 0.56 0μM, HepaRG cells, electroporation, approximately 16 hours, Table 41): 64%; percent inhibition of PKK at 1.67 1μM (human PKK mRNA [1]; 1.67 1μM, HepaRG cells, electroporation, approximately 16 hours, Table 41): 89%; IC50 (human PKK mRNA [1]; 4 point dose response, HepaRG cells, Table 41): 200 nM; percent inhibition of PKK at 0.19 μM (human PKK mRNA [1]; [6]): 39%; percent inhibition of PKK at 0.56 μM (human PKK mRNA [1]; [6]): 58%; percent inhibition of PKK at 1.67 μM (human PKK mRNA [1]; [6]): 87%; percent inhibition of PKK at 5.00 μM (human PKK mRNA [1]; [6]): 93%; IC50 (human PKK mRNA [1]; Table 34, PKK mRNA, HepaRG, electroporation, ~16 h): 300 nM; % inhibition (human PKK mRNA [2]; Table 13, human PKK mRNA in HepaRG cells, 5-10-5 gapmers): 95% |
